Reference: patent publication US9815802B2, “Herbicidally active N-(1-methyltetrazol-5-yl)benzoic acid amides” (BAYER CROPSCIENCE AKTIENGESELLSCHAFT, priority 2014, dated 2017)

Key:
Type in all cases: in vivo
[1] = system: Stellaria media; test: Pre-emergence herbicidal action against STEME
Excerpt: (§1) Pre-Emergence Herbicidal Action Against Harmful Plants
(§2) Seeds of monocotyledonous and dicotyledonous weed plants and crop plants are laid out in wood-fiber pots in sandy loam and covered with soil. The compounds of the invention, formulated in the form of wettable powders (WP) or as emulsion concentrates (EC), are then applied to the surface of the covering soil in the form of an aqueous suspension or emulsion at a water application rate equating to 600 to 800 I/ha, with addition of 0.2% wetting agent. After the treatment, the pots are placed in a greenhouse and kept under good growth conditions for the trial plants. The damage to the test plants is scored visually after a test period of 3 weeks by comparison with untreated controls (herbicidal activity in percent (%): 100% activity=the plants have died, 0% activity=like control plants). For example, compounds no. 1-001, 1-002, 1-003, 1-004, 1-011, 1-012, 1-021, 1-022, 1-031, 1-032, 1-041, 1-042 and 1-044 at an application rate of 320 g/ha each have at least 80% efficacy against Echinocloa crusgalli, Abutilon theophrasti, Amaranthus retroflexus and Matricaria inodora.

[2] = system: Setaria viridis; test: Pre-emergence herbicidal action against SETVI
Excerpt: as §1, §2

[3] = system: Alopecurus myosuroides; test: Post-emergence herbicidal action against ALOMY
Method: (§3) Post-Emergence Herbicidal Action Against Harmful Plants Seeds of monocotyledonous and dicotyledonous weed and crop plants are laid out in sandy loam in wood-fiber pots, covered with soil and cultivated in a greenhouse under good growth conditions. 2 to 3 weeks after sowing, the test plants are treated at the one-leaf stage. The compounds of the invention, formulated in the form of wettable powders (WP) or as emulsion concentrates (EC), are then sprayed onto the green parts of the plants in the form of an aqueous suspension or emulsion at a water application rate equating to 600 to 800 I/ha, with addition of 0.2% wetting agent. After the test plants have been left to stand in the greenhouse under optimal growth conditions for about 3 weeks, the action of the preparations is assessed visually in comparison to untreated controls (herbicidal action in percent (%): 100% activity=the plants have died, 0% activity=like control plants).

[4] = system: Avena fatua; test: Post-emergence herbicidal action against AVEFA
Method: as §3

[5] = system: Polygonum convolvulus; test: Post-emergence herbicidal action against POLCO
Method: as §3

[6] = system: Avena fatua; test: Pre-emergence herbicidal action against AVEFA; settings: dosage 320 g/ha
Excerpt: as §1, §2

[7] = system: Pharbitis purpureum; test: Pre-emergence herbicidal action against PHBPU; settings: dosage 320 g/ha
Excerpt: as §1, §2

[8] = system: Polygonum convolvulus; test: Pre-emergence herbicidal action against POLCO; settings: dosage 320 g/ha
Excerpt: as §1, §2

[9] = system: Echinochloa crus galli; test: Post-emergence herbicidal action against ECHCG; settings: Table T, dosage 80 g/ha
Method: as §3

[10] = system: Setaria viridis; test: Post-emergence herbicidal action against SETVI; settings: Table T, dosage 80 g/ha
Method: as §3

COSc1c(C)ccc(C(=O)Nc2nnnn2C)c1I
Activity against STEME ([1]; dosage 320 g/ha): 70%
Activity against SETVI ([2]; dosage 320 g/ha): 30%

COSc1c(C)ccc(C(=O)Nc2nnnn2C)c1OC
Activity against STEME ([1]; dosage 320 g/ha): 60%
Activity against SETVI ([2]; dosage 320 g/ha): 40%

COSc1c(C=O)ccc(C(=O)Nc2nnnn2C)c1C
Activity against STEME ([1]; dosage 320 g/ha): 0%
Activity against SETVI ([2]; dosage 320 g/ha): 0%

CCOSc1c(C)ccc(C(=O)Nc2nnnn2C)c1C
Activity against ALOMY ([3]; dosage 80 g/ha): 90%
Activity against AVEFA ([4]; dosage 80 g/ha): 100%

COSc1c(C(C)C)ccc(C(=O)Nc2nnnn2C)c1C
Activity against ALOMY ([3]; dosage 5 g/ha): 60%
Activity against AVEFA ([4]; dosage 5 g/ha): 40%

Cc1c(C(=O)Nc2nnnn2C)ccc(C(C)C)c1S(C)(=O)=O
Activity against ALOMY ([3]; Table S, dosage 5 g/ha): 60%
Activity against AVEFA ([4]; Table S, dosage 5 g/ha): 30%

Cc1c(C(=O)Nc2nnnn2C)ccc(I)c1S(C)(=O)=O
Activity against ALOMY ([3]; Table S, dosage 5 g/ha): 20%
Activity against AVEFA ([4]; Table S, dosage 5 g/ha): 0%

Cc1c(C(=O)Nc2nnnn2C)ccc(C(F)(F)F)c1S(C)(=O)=O
Activity against ALOMY ([3]; Table S, dosage 5 g/ha): 30%
Activity against AVEFA ([4]; Table S, dosage 5 g/ha): 0%

CCc1c(C(=O)Nc2nnnn2C)ccc(Cl)c1SOC
Activity against POLCO ([5]; Table V, dosage 5 g/ha): 20%

CCc1c(C(=O)Nc2nnnn2C)ccc(Br)c1S(C)(=O)=O
Activity against POLCO ([5]; Table W, dosage 20 g/ha): 40%

CCOSc1c(C(F)(F)F)ccc(C(=O)Nc2nnnn2C)c1CC
Activity against POLCO ([5]; Table X, dosage 20 g/ha): 20%

CCc1ccc(C(=O)Nc2nnnn2C)c(CC)c1S(=O)(=O)CC
Activity against POLCO ([5]; Table Y, dosage 20 g/ha): 100%

CCc1c(C(=O)Nc2nnnn2C)ccc(C(F)(F)F)c1S(=O)(=O)CC
Activity against POLCO ([5]; Table Y, dosage 20 g/ha): 80%

Cc1ccc(C(=O)Nc2nnnn2C)c(C)c1[S+](C)[O-] (stereo not shown) [1-001, 2,4-Dimethyl-3-(methylsulfinyl)-N-(1-methyl-1H-tetrazol-5-yl)benzamide]
Activity against STEME ([1]; dosage 320 g/ha): 90%
Activity against SETVI ([2]; dosage 320 g/ha): 100%

CCS(=O)(=O)c1c(C)ccc(C(=O)Nc2nnnn2C)c1C [1-004]
Activity against AVEFA [6]: 90%
Activity against PHBPU [7]: 80%

CCc1ccc(C(=O)Nc2nnnn2C)c(C)c1S(C)(=O)=O [1-012]
Activity against STEME ([1]; dosage 80 g/ha): 90%
Activity against SETVI ([2]; dosage 80 g/ha): 100%

CCc1c(C(=O)Nc2nnnn2C)ccc(C)c1S(C)(=O)=O [1-032]
Activity against AVEFA [6]: 80%
Activity against PHBPU [7]: 80%

CCc1ccc(C(=O)Nc2nnnn2C)c(CC)c1[S+](C)[O-] (stereo not shown) [1-041]
Activity against POLCO [8]: 80%
Activity against PHBPU [7]: 80%

CCc1ccc(C(=O)Nc2nnnn2C)c(CC)c1S(C)(=O)=O [1-042]
Activity against POLCO [8]: 100%
Activity against PHBPU [7]: 100%

Cc1c(C(=O)Nc2nnnn2C)cccc1S(C)(=O)=O [4-080]
Activity against STEME ([1]; dosage 80 g/ha): 50%
Activity against SETVI ([2]; dosage 80 g/ha): 20%

CCc1c(C(=O)Nc2nnnn2C)ccc(Cl)c1S(C)(=O)=O [4-192, reference compound]
Activity against POLCO [8]: 60%
Activity against PHBPU [7]: 80%

COc1ccc(C(=O)Nc2nnnn2C)c(C)c1S(C)(=O)=O [4-439]
Activity against STEME ([1]; dosage 80 g/ha): 70%
Activity against AVEFA [6]: 50%
Activity against SETVI ([2]; dosage 80 g/ha): 0%
Activity against PHBPU [7]: 60%

CCc1c(C(=O)Nc2nnnn2C)ccc(Br)c1SOC [4-503, reference compound]
Activity against POLCO [8]: 60%
Activity against PHBPU [7]: 50%

Cc1ccc(C(=O)Nc2nnnn2C)c(I)c1S(C)(=O)=O [4-791]
Activity against AVEFA [6]: 0%
Activity against PHBPU [7]: 30%

CCS(=O)(=O)c1c(C)ccc(C(=O)Nc2nnnn2C)c1I [4-794]
Activity against AVEFA [6]: 10%
Activity against PHBPU [7]: 60%

COSc1c(C)ccc(C(=O)Nc2nnnn2C)c1[N+](=O)[O-] [4-796]
Activity against STEME ([1]; dosage 320 g/ha): 50%
Activity against SETVI ([2]; dosage 320 g/ha): 0%

Cc1ccc(C(=O)Nc2nnnn2C)c([N+](=O)[O-])c1S(C)(=O)=O [4-797]
Activity against AVEFA [6]: 0%
Activity against PHBPU [7]: 0%

CCOSc1c(C)ccc(C(=O)Nc2nnnn2C)c1[N+](=O)[O-] [4-799]
Activity against STEME ([1]; dosage 320 g/ha): 70%
Activity against SETVI ([2]; dosage 320 g/ha): 0%

COc1c(C(=O)Nc2nnnn2C)ccc(C)c1S(C)(=O)=O [4-811]
Activity against AVEFA [6]: 60%
Activity against PHBPU [7]: 70%

CCOSc1c(CC)ccc(C(=O)Nc2nnnn2C)c1CC [drawing 36]
Activity against POLCO [8]: 100%
Activity against PHBPU [7]: 100%

CCc1c(C(=O)Nc2nnnn2C)ccc(Cl)c1S(=O)(=O)CC [drawing 37, reference compound]
Activity against POLCO [8]: 60%
Activity against PHBPU [7]: 80%

CCOSc1c(C)ccc(C(=O)Nc2nnnn2C)c1[N+](=O)[O-] [drawing 43, reference compound]
Activity against ALOMY ([3]; dosage 80 g/ha): 10%
Activity against AVEFA ([4]; dosage 80 g/ha): 0%

CCS(=O)(=O)c1c(C)ccc(C(=O)Nc2nnnn2C)c1C [drawing 45]
Activity against ALOMY ([3]; dosage 80 g/ha): 90%
Activity against AVEFA ([4]; dosage 80 g/ha): 80%

CCS(=O)(=O)c1c(C)ccc(C(=O)Nc2nnnn2C)c1C [drawing 46, reference compound]
Activity against ALOMY ([3]; dosage 80 g/ha): 40%
Activity against AVEFA ([4]; dosage 80 g/ha): 20%

CCc1ccc(C(=O)Nc2nnnn2C)c(C)c1S(C)(=O)=O [drawing 51]
Activity against ALOMY ([3]; dosage 5 g/ha): 60%
Activity against AVEFA ([4]; dosage 5 g/ha): 80%

Cc1c(C(=O)Nc2nnnn2C)ccc(S(C)(=O)=O)c1S(C)(=O)=O [drawing 52, reference compound]
Activity against ALOMY ([3]; dosage 5 g/ha): 30%
Activity against AVEFA ([4]; dosage 5 g/ha): 10%

COSc1c(S(C)(=O)=O)ccc(C(=O)Nc2nnnn2C)c1C [drawing 55, reference compound]
Activity against ALOMY ([3]; dosage 5 g/ha): 0%
Activity against AVEFA ([4]; dosage 5 g/ha): 0%

Cc1c(C(=O)Nc2nnnn2C)ccc(S(C)(=O)=O)c1S(C)(=O)=O [drawing 60]
Activity against ALOMY ([3]; Table S, dosage 5 g/ha): 30%
Activity against AVEFA ([4]; Table S, dosage 5 g/ha): 10%

CCc1c(C(=O)Nc2nnnn2C)ccc(C)c1SOC [drawing 61]
Activity against ECHCG [9]: 90%
Activity against SETVI [10]: 80%

COSc1c(C)ccc(C(=O)Nc2nnnn2C)c1C [drawing 62]
Activity against ECHCG [9]: 40%
Activity against SETVI [10]: 20%

CCc1c(C(=O)Nc2nnnn2C)ccc(C)c1SOC [drawing 67]
Activity against POLCO ([5]; Table V, dosage 5 g/ha): 60%

CCc1c(C(=O)Nc2nnnn2C)ccc(Br)c1SOC [drawing 69]
Activity against POLCO ([5]; Table V, dosage 5 g/ha): 20%

CCc1c(C(=O)Nc2nnnn2C)ccc(C)c1S(C)(=O)=O [drawing 70]
Activity against POLCO ([5]; Table W, dosage 20 g/ha): 70%

CCc1c(C(=O)Nc2nnnn2C)ccc(Cl)c1S(C)(=O)=O [drawing 71]
Activity against POLCO ([5]; Table W, dosage 20 g/ha): 50%

CCOSc1c(CC)ccc(C(=O)Nc2nnnn2C)c1CC [drawing 73]
Activity against POLCO ([5]; Table X, dosage 20 g/ha): 60%

CCc1c(C(=O)Nc2nnnn2C)ccc(Cl)c1S(=O)(=O)CC [drawing 76]
Activity against POLCO ([5]; Table Y, dosage 20 g/ha): 70%

CCOSc1c(OC)ccc(C(=O)Nc2nnnn2C)c1C [reference compound]
Activity against ALOMY ([3]; dosage 80 g/ha): 40%
Activity against AVEFA ([4]; dosage 80 g/ha): 20%

CCS(=O)(=O)c1c(C)ccc(C(=O)Nc2nnnn2C)c1[N+](=O)[O-] [reference compound]
Activity against ALOMY ([3]; dosage 80 g/ha): 10%
Activity against AVEFA ([4]; dosage 80 g/ha): 0%

Cc1c(C(=O)Nc2nnnn2C)ccc(Cl)c1S(C)(=O)=O [reference compound]
Activity against ALOMY ([3]; dosage 5 g/ha): 20%
Activity against AVEFA ([4]; dosage 5 g/ha): 20%

COSc1cccc(C(=O)Nc2nnnn2C)c1C [reference compound]
Activity against ALOMY ([3]; dosage 5 g/ha): 10%
Activity against AVEFA ([4]; dosage 5 g/ha): 20%
